Reference: PubChem BioAssay (NCI)
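Briefly, cells in 96-well plates were exposed to five compound concentrations for 48 h, and endpoints were estimated by linear interpolation. The concentration for 50% growth inhibition is given as GI50. At the TGI there is no net growth.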

How the values were obtained:
Assay in all cases: NCI tumour cell line growth inhibition, 48 h
NCI-H226 lung = test system: NCI-H226 lung
KM12 colon = test system: KM12 colon
OVCAR-4 ovarian = test system: OVCAR-4 ovarian
SF-295 CNS = test system: SF-295 CNS
SNB-75 CNS = test system: SNB-75 CNS
SF-539 CNS = test system: SF-539 CNS
HCT-116 colon = test system: HCT-116 colon
RPMI-8226 leukemia = test system: RPMI-8226 leukemia
NCI/ADR-RES ovarian = test system: NCI/ADR-RES ovarian
MDA-MB-231 breast = test system: MDA-MB-231 breast

| SMILES | TGI (NCI-H226 lung) | TGI (KM12 colon) | TGI (OVCAR-4 ovarian) | TGI (SF-295 CNS) | TGI (SNB-75 CNS) | TGI (SF-539 CNS) | TGI (HCT-116 colon) | TGI (RPMI-8226 leukemia) | TGI (NCI/ADR-RES ovarian) | TGI (MDA-MB-231 breast) | GI50 (NCI-H226 lung) | GI50 (KM12 colon) | GI50 (NCI/ADR-RES ovarian) | GI50 (SF-295 CNS) | GI50 (MDA-MB-231 breast) | GI50 (SF-539 CNS) | GI50 (HCT-116 colon) | GI50 (RPMI-8226 leukemia) | GI50 (OVCAR-4 ovarian) | GI50 (SNB-75 CNS) |
| --- | --- | --- | --- | --- | --- | --- | --- | --- | --- | --- | --- | --- | --- | --- | --- | --- | --- | --- | --- | --- |
| NC(=S)NNc1c([N+](=O)[O-])cnn(-c2ccccc2)c1=O | 35 µM | 28.2 µM | 31.8 µM | 29.4 µM | 34.1 µM | 34 µM | 22.1 µM | > 100 µM | – | – | – | – | – | – | – | – | – | – | – | – |
| O=C1C(c2ccccc2)=[N+]([O-])c2ccccc21 | 37.8 µM | 55.2 µM | 15.3 µM | 32.6 µM | 37.5 µM | 32.8 µM | > 100 µM | 56.9 µM | 36.3 µM | 25.4 µM | – | – | – | – | – | – | – | – | – | – |
| CCCCN(CCCC)c1c([N+](=O)[O-])c(=O)nc2ccccn12 | > 100 µM | > 100 µM | – | – | > 100 µM | > 100 µM | > 100 µM | > 100 µM | – | – | – | – | – | – | – | – | – | – | – | – |
| CCC1=NC(CO)[C@H](c2ccccc2)O1 (stereo partly drawn) | – | > 100 µM | > 100 µM | > 100 µM | > 100 µM | > 100 µM | > 100 µM | > 100 µM | – | – | – | – | – | – | – | – | – | – | – | – |
| O=[N+]([O-])c1cnn(C2=CNc3ccccc3N=C2)c1 | > 100 µM | – | – | > 100 µM | > 100 µM | > 100 µM | > 100 µM | – | – | – | – | – | – | – | – | – | – | – | – | – |
| Cc1cccc(-n2c(=S)[nH]c3c(sc(=O)n3-c3ccccc3C)c2=O)c1 | > 100 µM | > 100 µM | > 100 µM | > 100 µM | > 100 µM | > 100 µM | > 100 µM | > 100 µM | – | – | – | – | – | – | – | – | – | – | – | – |
| CN1CC[C@]2(C)c3ccc(O)cc3CC3CCCC1C32C (stereo partly drawn) | > 100 µM | > 100 µM | – | > 100 µM | > 100 µM | > 100 µM | > 100 µM | > 100 µM | – | – | – | – | – | – | – | – | – | – | – | – |
| NC(N)=NCCC1OC(=O)C2=C1c1c(O)ccc3nccc(c13)O2 (stereo not drawn) | > 100 µM | > 100 µM | – | > 100 µM | – | > 100 µM | > 100 µM | > 100 µM | > 100 µM | > 100 µM | 89.9 µM | > 100 µM | > 100 µM | > 100 µM | > 100 µM | > 100 µM | > 100 µM | > 100 µM | – | – |
| C/C=C/C=C/C=C/C=C/C(=O)O | > 100 µM | > 100 µM | > 100 µM | > 100 µM | > 100 µM | > 100 µM | > 100 µM | > 100 µM | – | – | – | – | – | – | – | – | – | – | – | – |
| Cc1cccc(C)c1NC(=O)C1C(=O)N(c2c(C)cccc2C)C(=O)/C1=N\NC(N)=S (stereo not drawn) | – | > 100 µM | > 100 µM | > 100 µM | – | > 100 µM | > 100 µM | > 100 µM | – | – | – | – | – | – | – | – | – | – | – | – |
| Cc1ccc(-c2cc(-c3ccccc3)c(C#N)c(=O)n2C2OC(CO)C(O)C(O)C2O)cc1 (stereo not drawn) | > 100 µM | > 100 µM | > 100 µM | > 100 µM | – | > 100 µM | > 100 µM | > 100 µM | – | – | – | – | – | – | – | – | – | – | – | – |
| Cc1ccc(-c2cc(-c3ccco3)c(C#N)c(=O)n2C2OC(OC(=O)c3ccccc3)C(OC(=O)c3ccccc3)C2OC(=O)c2ccccc2)cc1 (stereo not drawn) | – | > 100 µM | – | > 100 µM | > 100 µM | > 100 µM | > 100 µM | > 100 µM | – | – | – | – | – | – | – | – | – | – | – | – |
| O=C(O)C1CCCCC1C(=O)O.[NH-]C1CCC1.[NH2-].[Pt+2] (stereo not drawn) | 42.8 µM | > 100 µM | 29.7 µM | > 100 µM | > 100 µM | 33.2 µM | 36.2 µM | – | > 100 µM | 38.2 µM | 18.9 µM | > 100 µM | 33.8 µM | 42.6 µM | 18.8 µM | 17 µM | 16.1 µM | – | 15.2 µM | 84.6 µM |
| COC1OC(CO)C(O)C1N (stereo not drawn) | > 100 µM | > 100 µM | > 100 µM | > 100 µM | > 100 µM | > 100 µM | > 100 µM | – | – | – | – | – | – | – | – | – | – | – | – | – |
| CC[C@]1(O)C(=O)OCc2c1cc1n(c2=O)Cc2cc3c(N)cccc3nc2-1 | > 100 µM | > 100 µM | > 100 µM | > 100 µM | 99.1 µM | > 100 µM | > 100 µM | > 100 µM | – | – | – | – | – | – | – | – | – | – | – | – |
| N.N.N.N.O=C([O-])C(Cl)Cl.O=C([O-])C(Cl)Cl.[Co+3].[O-][Cl+3]([O-])([O-])[O-] | – | > 100 µM | > 100 µM | > 100 µM | > 100 µM | > 100 µM | > 100 µM | > 100 µM | – | – | – | > 100 µM | – | > 100 µM | – | > 100 µM | > 100 µM | > 100 µM | > 100 µM | > 100 µM |
| COc1ccc(/C=C\c2cc(OC)c(O[Si](C)(C)C(C)(C)C)c(OC)c2)cc1 | > 100 µM | > 100 µM | > 100 µM | – | > 100 µM | > 100 µM | > 100 µM | 83.3 µM | – | – | – | – | – | – | – | – | – | – | – | – |
| CCOC(=O)/C=C/C1=C(c2cccs2)c2ccccc2CC1 | 70.2 µM | 90 µM | > 100 µM | > 100 µM | 82.5 µM | – | 79.5 µM | 49.4 µM | 55.9 µM | 64.7 µM | 25.4 µM | 25.6 µM | 21.1 µM | 38.5 µM | 20.5 µM | – | 25.4 µM | 21.2 µM | 38.9 µM | 25.5 µM |
| COc1ccc(-c2ccc(-c3ccc(C(=N)N)cn3)o2)cc1 | 29.5 µM | 15.5 µM | 22.1 µM | – | 22.5 µM | 17.8 µM | 12.9 µM | 10.1 µM | 30.7 µM | 15.3 µM | 12.8 µM | 4.41 µM | 14.1 µM | – | 3.34 µM | 4.74 µM | 3.26 µM | 2.78 µM | 10.4 µM | 10.5 µM |
| COc1ccc(/C=C2\CCCC(C(NO)c3ccc(OC)cc3)C2=NO)cc1 (stereo not drawn) | – | > 100 µM | > 100 µM | > 100 µM | 79.6 µM | 83.3 µM | > 100 µM | > 100 µM | – | – | – | – | – | – | – | – | – | – | – | – |
| CCOC(=O)c1cc(/C=C/C(C)=C/C(=O)OC)oc1C | – | > 100 µM | > 100 µM | > 100 µM | > 100 µM | > 100 µM | > 100 µM | > 100 µM | – | – | – | – | – | – | – | – | – | – | – | – |
| CCCOc1ccc2nc(NC(=O)OC)[nH]c2c1 | – | > 100 µM | > 100 µM | > 100 µM | – | – | > 100 µM | > 100 µM | > 100 µM | > 100 µM | 0.399 µM | 0.0974 µM | 0.244 µM | 0.215 µM | 0.399 µM | – | 0.22 µM | 0.502 µM | 0.6 µM | – |
